The record followed here is US20260207699A1, “PHARMACEUTICAL COMPOSITION OF KAPPA OPIOID RECEPTOR AGONIST, PREPARATION METHOD THEREFOR, AND USE THEREOF” (YICHANG HUMANWELL PHARMACEUTICAL CO., LTD., priority 2022, published 2026).

Where a name gives a salt, the structure may show the parent alone.

A short description of data set [1]: Stability of salts of compound of formula (II), light (4500 Lux). The format is physicochemical. The method, then: (§1) Samples of acetate salt, citrate salt, and phosphate salt of the compound of formula (II) were placed for investigation respectively, and the investigation conditions were high temperature test (40° C.) and light (4500 Lux). The investigation period was 5 days, 10 days and 30 days.

Data set [2] in a line: Stability of salts of compound of formula (II), high temperature test (40° C.). The format is physicochemical. The following applies: for stability at high temperature of 40° C. and under light of 4500 Lux: up to 30 days. The procedure: as §1
For data set [3], the system named is chloroquine-induced pruritus. Put plainly: Chloroquine-induced pruritus model of ICR mice. The format is in vivo. The conditions noted are these: 3 mg/kg subcutaneously. The procedure: (§2) Test sample: Prescription 5 of Example 9 of the present application was used as the test sample.
ICR mice, SPF grade, male, weighing 30 g-40 g, raised in a constant temperature environment, temperature (20±2) ° C., humidity 40%-70%; the raising environment was with a light rhythm 12 h:12 h (6:00-18:00), free feeding and water, and adaptive feeding for 1 week.
The mice were shaved on the back of the neck. After shaving, the animals were weighed, and the mice were randomly divided into 5 groups of 10 animals per group according to their body weight, which were the vehicle control group; ICI204448 (CAS No.: 121264-04-8, positive control drug) control group (3 mg/kg); Test group 1 (0.1 mg/kg); Test group 2 (0.5 mg/kg); and Test group 3 (1.5 mg/kg). After the corresponding drugs were administered subcutaneously according to groups, 400 μg of chloroquine, a pruritus model inducer, was intradermally injected into the shaved area of the back of the neck of mice. Following intradermal injection of chloroquine, mice were individually placed in transparent plexiglass boxes and the number of scratches over 30 min was counted.

The next data set relates to mechanical allodynia. Kind of data set: Rat postoperative analgesic model, mechanical allodynia (paw withdrawal threshold). The format is in vivo, Sprague-Dawley rats. The conditions noted are these: 3 mg/kg. The method, then:
as §2
Sprague-Dawley rats, SPF grade, male, weighing 200 g-220 g, raised in a constant temperature environment, temperature (20±2) ° C., humidity 40%-70%; the raising environment was with a light rhythm 12 h:12 h (6:00-18:00), free feeding and water, and adaptive feeding for 1 week.
Animals were anesthetized with Zoletil (6 mg/kg)+xylazine ([…], i.p.). The toes of the animals were squeezed to confirm that the animals were fully anesthetized prior to surgery. The skin of the surgical area on the plantar site of the left hind foot was disinfected three times using iodophor and 70% ethanol. Wait until the skin was dry, to start the surgery. An incision about 1 cm long was made longitudinally toward the toe from the heel position. After incising the skin, the flexor digitorum brevis was lifted and a longitudinal blunt injury was caused. After pressing to stop bleeding, the wound was sutured. After surgery, the animals were placed on electric blankets, and returned to the cage when the animals were fully awake (free to move).
Twenty-four hours after surgery, the baseline test of mechanical allodynia was performed on rats. […] At the same time, 10 rats of the same batch were taken as the control of the normal group. Mechanical allodynia tests were performed at 0.5 h, 1 h, and 1.5 h after administration, respectively.
The rats were individually placed in a plexiglass box with a grid at the bottom to ensure that the rat feet could be tested. Rats would acclimatize for 15 minutes prior to the test. After completion of the acclimatizing, test fiber (Touch-Test Sensory Evaluator) was used to test at the central plantar site of the left hind foot of the rats. In the test, the test fiber was pressed vertically against the skin and force was applied to bend the fiber for 6-8 seconds, with 5 seconds apart between each test. In the test, an animal's rapid withdrawal of the foot was noted as a pain response.

Data set [4] can be described thus: Conventional injection, sterilization according to conventional requirements. The format is physicochemical. The conditions noted are these: prepared into a conventional injection. The procedure: After the cooled pharmaceutical solution is centrifuged at 3000 rpm to 10000 rpm, the precipitate is collected and detected by mass spectrometry (mass spectrometry conditions: chromatographic column: ACQUITY UPLC BEH C8, 50 mm×2.1 mm, 1.7 μm (20180306-C8-08); mobile phase A: 0.1% formic acid/water; mobile phase B: 0.1% formic acid/acetonitrile; flow rate: 0.2 ml/min; column temperature: 30° C.; detector wavelength: UV-210 nm; QDa; cone voltage: positive scan 10 volts, negative scan 5 volts; capillary voltage: plus 1.5 kV, minus 0.5 kV). Based on the detected MS values, it is speculated that the white flocculent precipitate is a degradation impurity as shown in the following formula: […]

Turning to `CC(C)C[C@@H](NC(=O)[C@@H](Cc1ccccc1)NC(=O)[C@H](N)[C@H](C)c1ccccc1)C(=O)N[C@H](CCCCN)C(=O)N1CCC(N)(C(=O)O)C1` (stereo partly drawn) [Acetate salt (1:1)], the “HPLC purity (%)” value in data set [1] (5 days) is 97.9%; in data set [1] (10 days), 97.8%; in data set [1] (30 days), 97.6%; in data set [2] (0 days), 97.9%; in data set [2] (40° C., 5 days), 97.7%; in data set [2] (40° C., 10 days), 97.5%. For the same molecule, the “HPLC purity (%)” value in data set [2] (40° C., 30 days) was 97.1%. For the same molecule, the “stability at high temperature of 40° C. and under light of 4500 Lux” value (from here on “stability at high temperature”) in data set [2] is “better stability”.

As to `CC(C)C[C@@H](NC(=O)[C@@H](Cc1ccccc1)NC(=O)[C@H](N)[C@H](C)c1ccccc1)C(=O)N[C@H](CCCCN)C(=O)N1CCC(N)(C(=O)O)C1` (stereo partly drawn) [Citrate salt (1:1)], the “HPLC purity (%)” value in data set [1] (5 days) is reported as 96.2%; in data set [1] (10 days), 95.5%; in data set [1] (30 days), 94.7%; in data set [2] (0 days), 96.8%; in data set [2] (40° C., 5 days) it was 95.7%; in data set [2] (40° C., 10 days), 94.6%. In addition, the “HPLC purity (%)” value in data set [2] (40° C., 30 days) is recorded as 93.5%. In addition, the “stability at high temperature” value in data set [2] is “degraded in different degrees”.

The molecule `CN(C(=O)Cc1ccc(Cl)c(Cl)c1)C(CN1CCCC1)c1cccc(OCC(=O)O)c1` (stereo not drawn) [ICI204448] displayed an Inhibition rate in data set [3] (scratches over 30 min) of 97.4%. For the same molecule, the “Number of scratches (mean ± standard error)” value in data set [3] (scratches over 30 min after 400 μg chloroquine intradermal) is listed as 7.3 ± 2.43.

With `CN1CC[C@]23c4c5ccc(O)c4O[C@H]2[C@@H](O)C=C[C@H]3[C@H]1C5` [Morphine, morphine], the Pain inhibition rate in the data set on mechanical allodynia (0.5 hours after administration) is 122.5%; with mechanical allodynia (1 hours after administration), 84.2%; in the data set with mechanical allodynia (1.5 hours after administration), 27.9%.

As for `CC(C)C[C@@H](NC(=O)[C@@H](Cc1ccccc1)NC(=O)[C@H](N)[C@H](C)c1ccccc1)C(=O)N[C@H](CCCCN)C(=O)N1CCC(N)(C(=O)O)C1` (stereo partly drawn) [Phosphate salt (1:1)], the “HPLC purity (%)” value amounted to 96.2% in data set [1] (5 days); 95.1% in data set [1] (10 days); 94.2% in data set [1] (30 days); 96.5% in data set [2] (0 days); 95.6% in data set [2] (40° C., 5 days); 94.3% in data set [2] (40° C., 10 days). The “HPLC purity (%)” value in data set [2] (40° C., 30 days) is given as 92.3%. The “stability at high temperature” value in data set [2] was “degraded in different degrees”.

`CC(C)C[C@@H](NC(=O)[C@@H](Cc1ccccc1)NC(=O)[C@H](N)[C@H](C)c1ccccc1)C(=O)N[C@H](CCCCN)C(=O)N1CCC(N)(C(=O)O)C1` (stereo partly drawn) [compound (II)]: the “appearance after sterilization when cooled to room temperature” value in data set [4] is recorded as “a flocculent precipitate is separated out”.
